# From article PMC7920280, “The Multi-Targeting Ligand ST-2223 with Histamine H3 Receptor and Dopamine D2/D3 Receptor Antagonist Properties Mitigates Autism-Like Repetitive Behaviors and Brain Oxidative Stress in Mice” (International Journal of Molecular Sciences, 2021)
# Assays:
# Assay type in all cases: in vivo
# BTBR and B6 mice [1] = assay: Open field test (OFT): locomotor activity and anxiety levels; details: i.p.; for total distance travelled (OFT) / time spent in the periphery (OFT), effect of treatment: B6 and BTBR mice; for total distance travelled (OFT) / time spent in the central arena (OFT) vs vehicle-treated B6 mice / time spent in center (OFT) vs vehicle-treated BTBR mice: ST-2223 2.5, 5 and 10 mg/kg, MEM 5 mg/kg, ARP 1 mg/kg; for time spent in the periphery (OFT), effect of treatment: ST-2223 2.5, 5 or 10 mg/kg, MEM, ARP
# Method: (§1) The drugs tested included ST-2223 [N-(4-(4-(2-methoxyphenyl)piperazin-1-yl)butyl)-6-(3-(piperidin-1-yl)propoxy)-2-naphthamide] that was designed and synthesized in the Institute of Pharmaceutical and Medicinal Chemistry, Heinrich Heine University Düsseldorf, Germany, and in accordance with previously described methodologies (Supplementary Materials). Aripiprazole (ARP) (1 mg/kg, i.p.) and memantine (MEM, 5 mg/kg, i.p.), as reference drugs, were purchased from Sigma-Aldrich (St. Louis, MO, USA). The CNS-penetrant H3R agonist (R)-α-methylhistamine (RAM, 10 mg/kg, i.p.) was purchased from Sigma-Aldrich, St. Louis, MO, USA. T. Protease and the phosphatase inhibitor cocktail were procured from Thermo Scientific, USA. The assay kit for reduced glutathione (GSH) was obtained from Sigma-Aldrich (St. Louis, MO, USA). The lipid peroxidation assay kit for estimation of malondialdehyde (MDA) was purchased from North West Life Science (Vancouver, WA, USA). The assay kits for superoxide dismutase (SOD) and catalase (CAT) were purchased from Cayman Chemical (Ann Arbor, MI, USA). The drugs were prepared daily using 1% dimethyl sulfoxide (DMSO) in 0.9% saline, for intraperitoneal (i.p.) administration at a volume of 10 mL/kg of body weight. Vehicle treatment consisted of 1% DMSO in 0.9% normal saline. All drugs were i.p. administered 30 min before the behavioral test. The doses of these drugs were chosen based on previous reports. Neurobehavioral assessment was performed blindly with respect to experimental group and drug administration.
# The open field test (OFT) systematically evaluates exploration behaviors executed in a novel open field (considered as a novel environment), as an independent control for the effects of the drugs on physical activity that could confound the interpretation of the results from the self-grooming, anxiety and spontaneous alternation. Mice were allowed to freely explore an open-field arena (45 × 45 × 30 cm), to assess general locomotor activity, and anxiety-related behaviors. The center arena was defined as the central 23 × 23 cm area. Mice were given 5 min to habituate in the center area of the arena before the recording started for the actual behavioral assessments. Recording lasted for 10 min using charge-coupled device (CCD) camera-assisted motion tracking apparatus and software (EthoVision 3.1, Noldus Information Technology, The Netherlands), and the total distance moved in the whole arena, time spent in the center and periphery were recorded. Test chambers were cleaned with 70% ethanol after each trial and were allowed to dry until ethanol evaporation and odor dissipation had occurred. When interpreting the results observed in this assessment, less time spent in the center was considered as an indicator for high levels of anxiety-like behaviors and total distance travelled signified the overall locomotor activity of tested animals.
# malondialdehyde (MDA) = assay: Malondialdehyde (MDA) assay in brain parts of treated BTBR mice; details: i.p., ST-2223 5 mg/kg, RAM 10 mg/kg, ARP 1 mg/kg, MEM 5 mg/kg, mean ± SEM; for MDA, Striatum: n = 3-6, BTBR vehicle 52.7 ± 3.4; for MDA, Hippocampus: n = 3-6, BTBR vehicle 53.8 ± 2.9; for MDA, Cerebellum: n = 3-6, BTBR vehicle 54.0 ± 6.4; for MDA, Prefrontal Cortex: n = 3-6, BTBR vehicle 58.3 ± 1.8
# Method: (§2) At the end of the behavioral assessments, the animals were sacrificed following previously published protocols. Animals were anesthetized with pentobarbital (40 mg/kg, body weight, i.p.), sacrificed, and perfused via intracardial infusion to wash out the blood, using 1× PBS (0.01 M phosphate buffer, 0.0027 M potassium chloride and 0.137 M sodium chloride) at pH 7.4. […] The brains were then quickly removed and placed on an ice plate. The cerebellum, hippocampus, prefrontal and striatum were excised from the brain and snap-frozen in liquid nitrogen for further use in biochemical assessments. On the day of the biochemical tests, the tissues were homogenized using radioimmunoprecipitation assay (RIPA) buffer (50 mM Tris HCl, pH 7.4, 140 mM NaCl, 1 mM EDTA, 0.5% Triton X-100 and 0.5% sodium deoxycholate) supplemented with protease and phosphatase inhibitors. Then, the homogenates were centrifuged at 14,000 rpm for 30 min (4 °C), and the supernatant was used for evaluation of lipid peroxidation, glutathione, and antioxidant enzymes using spectrophotometric measurements and enzyme-linked immunosorbent assays (ELISA)..
# This assay was performed to estimate the amount of lipid peroxidation in experimental animals using an MDA detection kit following the manufacturer’s instructions, as previously described in our laboratories. Briefly, 250 μL of sample or calibrator was incubated with thiobarbituric acid, followed by rigorous vortexing. After 1 h incubation at 60 °C, the mixture was centrifuged at 10,000× g for 2–3 min and the reaction mixture was transferred to a cuvette. Spectra were measured at 532 nm and the results are expressed as µM MDA/mg protein.
# glutathione (GSH) = assay: Quantification of glutathione (GSH) in brain parts of treated BTBR mice; details: i.p., ST-2223 5 mg/kg, RAM 10 mg/kg, ARP 1 mg/kg, MEM 5 mg/kg, mean ± SEM; for GSH, Striatum: n = 3-6, BTBR vehicle 583 ± 68.8; for GSH, Cerebellum: n = 3-6, BTBR vehicle 827 ± 93.3; for GSH, Prefrontal Cortex: n = 3-6, BTBR vehicle 835 ± 97.4; for GSH, Hippocampus: n = 3-6, BTBR vehicle 1096 ± 16.7
# Method: as §2
# Levels of GSH in tissue homogenates were carried out according to the manufacturer’s instructions of the commercially available Sigma’s glutathione assay kit (Sigma-Aldrich Chemie GmbH, Steinheim), and as previously described. In brief, samples were first deproteinized with 5% 5-sulfosalicylic acid solution, centrifuged to remove the precipitated protein, and then the supernatant was used to estimate GSH. Ten microliter samples or standards were incubated with 150 μL of working mixture (assay buffer + 5,5′-dithiobis (2-nitrobenzoic acid) + GSH reductase) in 96-well plates for 5 min. Diluted NADPH solution (50 µL) was added into each well and mixed thoroughly. Absorbance was measured at 412 nm with the kinetics for 5 min by using the microplate reader. Results are expressed as µM GSH/mg protein.
# BTBR and B6 mice [2] = assay: Marble burying task (MBT); details: MEM 5 mg/kg; for percentage of marbles buried vs vehicle-treated BTBR mice: i.p. 30-45 min before, ST-2223 2.5, 5 and 10 mg/kg, ARP 1 mg/kg; for percentage of marbles buried vs vehicle-treated B6 mice: i.p., ST-2223 2.5, 5, 10 mg/kg
# Method: as §1
# The MBT is used for testing repetitive and compulsive behaviors as it accurately reflects repetitive digging behavior [95, 96]. The test was performed as described previously, with slight modifications. Briefly, cages (26 cm × 48 cm × 20 cm) were filled with fresh, unscented mouse bedding material to a depth of 5 cm, on top of which 20 marbles were placed in 4 rows of 5 marbles each (15 mm diameter). Before placing the marbles, the bedding surface was leveled by placing another cage of the same size onto the surface of the bedding and then each mouse was individually added for 10 min habituation. After habituation, the mouse was removed, and the marbles were carefully overlaid. The same mouse was then returned to its designated test cage and allowed to explore for 30 min. The total number of marbles buried (>50% marble covered by the bedding material) was determined at the end of the session.
SMILES,total distance travelled (OFT) (BTBR and B6 mice [1]),"time spent in the periphery (OFT), effect of treatment (BTBR and B6 mice [1])",time spent in the central arena (OFT) vs vehicle-treated B6 mice (BTBR and B6 mice [1]),time spent in center (OFT) vs vehicle-treated BTBR mice (BTBR and B6 mice [1]),"MDA, Striatum (malondialdehyde (MDA)) [µM MDA/mg protein]","MDA, Hippocampus (malondialdehyde (MDA)) [µM MDA/mg protein]","MDA, Cerebellum (malondialdehyde (MDA)) [µM MDA/mg protein]","MDA, Prefrontal Cortex (malondialdehyde (MDA)) [µM MDA/mg protein]","GSH, Striatum (glutathione (GSH)) [µM GSH/mg protein]","GSH, Cerebellum (glutathione (GSH)) [µM GSH/mg protein]","GSH, Prefrontal Cortex (glutathione (GSH)) [µM GSH/mg protein]","GSH, Hippocampus (glutathione (GSH)) [µM GSH/mg protein]",percentage of marbles buried vs vehicle-treated BTBR mice (BTBR and B6 mice [2]),percentage of marbles buried vs vehicle-treated B6 mice (BTBR and B6 mice [2])
"O=C1CCc2ccc(OCCCCN3CCN(c4cccc(Cl)c4Cl)CC3)cc2N1 [ARP, aripiprazole]",did not show any alteration,no significant effect,did not alter,significantly increased,41.2 ± 1.4,32.9 ± 4.1,36.8 ± 1.8,43.0 ± 2.5,1139 ± 74.6,1030 ± 36.2,935 ± 98.0,611.5 ± 62.6,significantly reduced,–
"CC12CC3CC(C)(C1)CC(N)(C3)C2 [MEM, memantine]",did not show any alteration,no significant effect,did not alter,failed to significantly mitigate,32.6 ± 4.1,32.8 ± 3.4,26.7 ± 3.6,40.0 ± 5.7,915.5 ± 97.3,877 ± 55.7,719.3 ± 50.0,–,significantly reduced,not significant
"COc1ccccc1N1CCN(CCCCNC(=O)c2ccc3cc(OCCCN4CCCCC4)ccc3c2)CC1 [ST-2223, N-(4-(4-(2-methoxyphenyl)piperazin-1-yl)butyl)-6-(3-(piperidin-1-yl)propoxy)-2-naphthamide]",did not show any alteration,no significant effect,did not alter,significantly increased,34.5 ± 5.5,38.1 ± 3.1,35.2 ± 1.8,39.1 ± 3.2,1007 ± 93.1,1108 ± 41.1,1212 ± 302.6,916 ± 4.2,significantly decreased,did not alter
